We go through two compounds from patent publication US9642854B2, “Flavanoid compounds and process for preparation thereof” (Council of Scientific & Industrial Research, priority 2009, dated 2017).

For orientation: MIC50 means an inhibitory concentration at the 50% level, which refers to growth in some studies and to a panel of isolates in others. A word on the MIC: it is the lowest concentration that inhibits growth of the organism. As usually defined, the MBC is the smallest concentration meeting the test's criterion for killing.

In brackets after ≈: the same amount, converted by molar mass. Where two headings read alike, the source gives them in different places.

Assay [1] relates to H. pylori. In words: Anti H. pylori screening by disc diffusion susceptibility assay. The following applies: 100 and 200 mg/disc (so in the source), 72 h. The format is cell-based, Helicobacter pylori. A digest of the protocol: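 Clinical strains HP001, HP002 and ATCC 700392, 43504, 49503 (10^8 CFU/mL) spread on supplemented BHI agar; 5 mm discs loaded with 100 and 200 […] compound in ethanol or DMSO. Zones read after 72 h microaerophilic growth at 37 °C; scored + (10-20 mm), ++ (20-30 mm), +++ (>30 mm), Nil <10 mm.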
Background: Agar diffusion results depend on both activity and mobility in agar.

For assay [2], the system named is H. pylori. In words: Anti H. pylori spectrum (MIC) by agar dilution method. The format is cell-based, Helicobacter pylori. To be noted: for MIC50 / MIC: Helicobacter pylori; for MIC50: MIC against 50% of the strains of the panel, read-out: MIC50. The method in brief: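 Agar dilution per CLSI against six clinical isolates and four standard strains on BHI agar with 7% FCS, 0.5% IsoVitalex and DENT. Inoculum ~10^8 CFU/mL; 2-fold compound dilutions from 1.56-100; 72 h microaerophilic at 37 °C. MIC read visually as no growth, in duplicate; MIC50 covers 50% of strains.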

Assay [3] has as its system H. pylori. Nature of the assay: MIC and MBC by microbroth dilution assay. It counts as cell-based, Helicobacter pylori. To be noted: Helicobacter pylori. The protocol:
The compounds, serially diluted ([…]) in Muller Hinton broth containing 5% FCS, were incubated in 96-well microtitre plate containing fresh cultures of HP001 (˜5.5×10^6 CFU/mL) or ATCC® 43504 (2.65×10^6 CFU/ml) in a final volume of […]. After 72-h of incubation under microaerophilic condition at 37° C., […] of cultures wherein no growth had been detected were streaked on fresh brain heart infusion agar plates for MBC determination.
In microbroth dilution assay employing one clinical and one standard strain, both the bacteriostatic and the bactericidal values were determined for all four compounds as well as for clarithromycin (Table 4). Two-fold serial dilutions were prepared in 96-well microtitre plate containing a total volume of 0.1 mL Mueller Hinton broth supplemented with 5% FCS. A 3-day old liquid culture was diluted 10 times in Mueller Hinton broth and 0.1 mL of these cultures was inoculated into each well to give a final concentration of ˜10^6 CFU/mL. The plates were incubated for 3 days in a microaerophilic atmosphere at 37° C. Following incubation, the plates were examined visually, and the lowest concentration showing complete inhibition of growth was recorded as the MIC of the respective compound (Hachem et al., 1996). Aliquots (0.1 mL) of 72-h culture in which no growth had been detected were taken from the wells of the above microtitre plates and used to streak on fresh BHI agar plates.
In general terms: Dilution methods test growth across graded concentrations, often in twofold steps.

Assay [4] deals with H. pylori. Nature of the assay: Time kill kinetic analyses in biphasic culture. The format is cell-based, Helicobacter pylori.
Assay [5] deals with H. pylori. Nature of the assay: Acid stability study (pH ~2.0, 2 h, then MIC/MBC by microbroth dilution). The format is cell-based, Helicobacter pylori. The following applies: Helicobacter pylori. On the procedure: Details of experimental protocol are described under Experiment 7. MIC/MBC values were determined by microbroth dilution assay.
A 100 μL stock of CPP-1, NMC-1, NMC-2 and CPP-3 (1-2 mg/mL) was treated with 20-30 μL of 0.12 NHCl to bring the pH of the solution to ^˜2.0, and kept at 25° C. for 2 h (Funatogawa et al., 2004). Such acid-treated samples were then serially diluted (2 fold) with medium in 96-well microtitre plates to determine the MIC and the MBC values by microbroth dilution assay as detailed under Experiment 3.

Assay [6] deals with T1, pig gastric H^+,K^+-ATPase (Sus scrofa, UniProt P19156).
T1 construct: tubulovesicular and apical membranes, isolated from freshly slaughtered pig gastric mucosa; from tissue; host or cells: pig gastric mucosa (membrane fraction by density gradient centrifugation)
T1 sequence (P19156 2-1034 limits assumed): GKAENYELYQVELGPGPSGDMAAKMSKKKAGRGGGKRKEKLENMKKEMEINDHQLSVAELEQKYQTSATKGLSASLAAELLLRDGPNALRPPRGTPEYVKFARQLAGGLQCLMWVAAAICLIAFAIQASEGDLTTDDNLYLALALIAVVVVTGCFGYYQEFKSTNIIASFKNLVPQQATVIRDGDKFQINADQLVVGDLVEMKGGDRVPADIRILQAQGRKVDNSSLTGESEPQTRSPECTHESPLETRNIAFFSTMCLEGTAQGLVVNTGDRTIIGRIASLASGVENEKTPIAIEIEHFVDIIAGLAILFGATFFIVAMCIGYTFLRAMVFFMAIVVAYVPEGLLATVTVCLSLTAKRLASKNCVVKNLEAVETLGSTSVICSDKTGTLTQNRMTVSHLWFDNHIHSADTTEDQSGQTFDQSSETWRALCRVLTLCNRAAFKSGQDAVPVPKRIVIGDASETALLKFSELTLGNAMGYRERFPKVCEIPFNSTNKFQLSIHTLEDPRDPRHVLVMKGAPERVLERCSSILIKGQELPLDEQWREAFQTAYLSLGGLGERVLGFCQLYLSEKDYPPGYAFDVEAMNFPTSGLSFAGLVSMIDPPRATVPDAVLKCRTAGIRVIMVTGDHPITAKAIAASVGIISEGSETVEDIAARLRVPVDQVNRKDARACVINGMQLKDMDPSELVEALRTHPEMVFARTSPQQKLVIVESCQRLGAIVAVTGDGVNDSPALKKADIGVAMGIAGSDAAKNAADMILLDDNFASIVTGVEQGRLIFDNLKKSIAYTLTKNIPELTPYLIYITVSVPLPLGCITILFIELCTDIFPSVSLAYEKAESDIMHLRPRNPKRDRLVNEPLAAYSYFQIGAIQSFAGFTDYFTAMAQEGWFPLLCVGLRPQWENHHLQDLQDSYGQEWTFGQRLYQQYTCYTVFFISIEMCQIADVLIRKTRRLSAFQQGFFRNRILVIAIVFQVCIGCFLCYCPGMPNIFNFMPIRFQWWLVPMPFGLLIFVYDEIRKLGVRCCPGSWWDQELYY
T1 sequence (P18434 whole entry partner): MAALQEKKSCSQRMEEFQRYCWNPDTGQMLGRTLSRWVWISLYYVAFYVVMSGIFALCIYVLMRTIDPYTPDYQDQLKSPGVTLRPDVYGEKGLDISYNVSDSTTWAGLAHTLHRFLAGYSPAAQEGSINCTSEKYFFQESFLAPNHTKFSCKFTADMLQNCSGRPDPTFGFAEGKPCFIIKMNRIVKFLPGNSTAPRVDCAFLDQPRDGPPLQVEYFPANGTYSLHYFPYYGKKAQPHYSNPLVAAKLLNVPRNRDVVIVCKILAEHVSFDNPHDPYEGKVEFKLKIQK
Nature of the assay: Gastric H+,K+-ATPase activity assay. The format is biochemical. On the procedure: The data are averages of 3-4 determinations each carried out in triplicate. The assay system contained 10 mM PIPES-Tris (pH 6.8), 2 mM each of ATP and MgCl2 with or without 10 mM KCl and about […] in a final volume of 1 mL. Both blank and experimental tubes with or without CPP-1 at different concentrations were preincubated with otherwise complete assay mixture at 37° C. for 10 min before initiating the reaction with the substrate ATP. K^+-stimulated activity referred to as H^+,K^+-ATPase activity, was calculated as the difference between the activity in presence of Mg^2+ plus K^+ and the basal activity (Mg^2+-ATPase) in presence of Mg2^+ alone. The specific activity of H^+,K^+-ATPase in control sets was in the range of 40-50 μmole Pi/mg protein/h.
The effect of CPP-1 on gastric H^+K^+-ATPase was investigated. Isolation of pig gastric mucosal membranes, rich in H^+,K^+-ATPase activity, was carried out by density gradient centrifugation technique (Ray, 1978). The enzyme assay system contained 10 mM PIPES-Tris (pH 6.8), 2 mM each of ATP and MgCl with or without 10 mM KCl and about […] in a final volume of 1 mL. Both blank and experimental tubes with or without CPP-1 at different concentrations were preincubated with otherwise complete assay mixture at 37° C. for 10 min before initiating the reaction with the substrate ATP. After appropriate time of incubation with ATP at 37° C., the reaction was terminated with the addition of 1 mL of ice-cold TCA (14%, w/v). The liberated inorganic phosphate (Pi) was estimated essentially by the method of Sanui (1974). K^+-stimulated activity referred to as H^+,K^+-ATPase activity, was calculated as the difference between the activity in presence of Mg^2+ plus K^+ and the basal activity (Mg^2+-ATPase) in presence of Mg^2+ alone. The specific activity of H^+,K^+-ATPase was expressed as micromoles of Pi liberated per hour per milligram protein. The data are averages of 3-4 determinations each carried out in triplicate. The specific activity of H^+,K^+-ATPase in control sets was in the range of 40-50 μmole Pi/mg protein/h.

Where [7] appears, read: ATCC43504, microbroth dilution, ATCC 43504.

Turning to `CN1CCN(CCCOc2cc(O)c3c(=O)cc(-c4ccccc4)oc3c2)CC1` [NMC-2, 5-Hydroxy-7-[3-(4-methyl-piperazin-1-yl)-propoxy]-2-phenyl-chromen-4-one], the “Inhibition zone diameter (score)” value with H. pylori [1] (ATCC standard strain 43504) is listed as “+ (Inhibition zone diameter ranging 10-20 mm was given a score of ^+)”; with H. pylori [1] (ATCC standard strain 49503), “+ (Inhibition zone diameter ranging 10-20 mm was given a score of ^+)”; with H. pylori [1] (ATCC standard strain 700392), “+ (Inhibition zone diameter ranging 10-20 mm was given a score of ^+)”; in the assay with H. pylori [1] (clinical strain HP001), “+ (Inhibition zone diameter ranging 10-20 mm was given a score of ^+)”; in the assay with H. pylori [1] (clinical strain HP002), “++ (20-30 mm as ^++)”. Further, the figures for the MIC50 in the assay with H. pylori [2] (72 h) and in the assay on H. pylori [2] were about 12.5 µg/mL (≈ 31.7 µM) and 12.5 µg/mL (≈ 31.7 µM), respectively. The MIC with H. pylori [2] (72 h, panel of 6 clinical isolates and 4 standard strains, read-out: MIC Range) was 6.25 to 100 µg/mL (≈ 15.8 to 254 µM); in the assay with H. pylori [2] (clinical strain HP001, read-out: MIC), 12.5 µg/mL (≈ 31.7 µM); in the assay on H. pylori [2] (clinical strain HP002, read-out: MIC), 6.25 µg/mL (≈ 15.8 µM); with H. pylori [2] (clinical strain HP003, read-out: MIC), 12.5 µg/mL (≈ 31.7 µM); with H. pylori [2] (clinical strain HP004, read-out: MIC) it was 12.5 µg/mL (≈ 31.7 µM); in the assay on H. pylori [2] (clinical strain HP005, read-out: MIC), 6.25 µg/mL (≈ 15.8 µM). The MIC in the assay on H. pylori [2] (clinical strain HP006, read-out: MIC) was 12.5 µg/mL (≈ 31.7 µM); in the assay with H. pylori [2] (standard strain 43504, read-out: MIC) it was 12.5 µg/mL (≈ 31.7 µM); in the assay with H. pylori [2] (standard strain 43629, read-out: MIC), 25 µg/mL (≈ 63.4 µM); in the assay on H. pylori [2] (standard strain 49503, read-out: MIC) it was 3.12 µg/mL (≈ 7.92 µM); in the assay on H. pylori [2] (standard strain 700392, read-out: MIC) it was 12.5 µg/mL (≈ 31.7 µM); against H. pylori [3] (setting [7]), 12.5 µg/mL (≈ 31.7 µM). The MIC in the assay on H. pylori [3] (microbroth dilution, HP001) was determined as 12.5 µg/mL (≈ 31.7 µM); in the assay with H. pylori [5] (2 h, pH ~2.0, 2 h, 25° C., 43504, read-out: MIC, Acid treated) it was 25000 µg/mL (≈ 63400 µM); in the assay with H. pylori [5] (2 h, pH ~2.0, 2 h, 25° C., HP001, read-out: MIC, Acid treated) it was 25000 µg/mL (≈ 63400 µM); with H. pylori [5] (not acid treated, 43504, read-out: MIC, Control) it was 12500 µg/mL (≈ 31700 µM); in the assay on H. pylori [5] (not acid treated, HP001, read-out: MIC, Control) it was 12500 µg/mL (≈ 31700 µM). The “MIC Range” value against H. pylori [2] (panel of 6 clinical isolates and 4 standard strains) lay in the range of 3.125 to 12.5 µg/mL. Also, the MBC is 50 µg/mL (≈ 127 µM) against H. pylori [3] (setting [7]); 25 µg/mL (≈ 63.4 µM) in the assay on H. pylori [3] (microbroth dilution, HP001); under 50000 µg/mL in the assay with H. pylori [5] (2 h, pH ~2.0, 2 h, 25° C., 43504, read-out: MBC, Acid treated); 50000 µg/mL (≈ 127000 µM) in the assay with H. pylori [5] (2 h, pH ~2.0, 2 h, 25° C., HP001, read-out: MBC, Acid treated); 50000 µg/mL (≈ 127000 µM) with H. pylori [5] (not acid treated, 43504, read-out: MBC, Control); 25000 µg/mL (≈ 63400 µM) in the assay with H. pylori [5] (not acid treated, HP001, read-out: MBC, Control). Further, in the assay with H. pylori [4] (ATCC 43504, 2×MIC (clarithromycin 0.08, CPP-1 and NMC-1 12.5, NMC-2 and CPP-3 25 μg/mL)), the “time to complete killing” value is given as at most 12 h. Besides, the “killing at MIC dose” value in the assay on H. pylori [4] (ATCC 43504, MIC ([…])) was “could not produce complete killing”. In the assay with H. pylori [4] (HP001, biphasic culture), the “time at which killing/inhibition became evident” value is given as over 9 h. The “killing at MIC dose (1×MIC)” value in the assay on H. pylori [4] (HP001, up to 36 h) is recorded as “did not kill the bacteria completely even at 36 h”.
For the compound `COc1ccc2[nH]c([S+]([O-])Cc3ncc(C)c(OC)c3C)nc2c1` (centres unmarked) [Omeprazole, reference compound], the “Percent inhibition of H^+, K^+-ATPase activity” value in assay [6] (1 mg/assay (so in the source)) is listed as 20%; in assay [6] (10 mg/assay (so in the source)) it was “about 80%”. The “inhibition of H^+,K^+-ATPase” value in assay [6] (dose range of 1-10 μg/assay) is listed as 20-80%.
